Laboratory results from PMC11784839, “Monoaminergic neurotransmitters are bimodal effectors of tau aggregation” (Science Advances, 2025).

Target: tau (Homo sapiens, UniProt P10636)
Test: MCE Phenols Library screening, tau biosensor cell seeding assay (AvZ)
Format: cell-based
Conditions: for AvZ (average z score of seeding, SDs from the mean level of seeding): 10 μM phenol in cell cultures, AD brain homogenate preincubated 16 hours, two biological replicates, positive = catalyzes seeding, negative = inhibits; for Z repl 1 / Z Repl 2: Z score; for Z repl 1 / raw data 1: replicate 1; for Z Repl 2 / raw data 2: replicate 2
[1] = average puncta of the two replicates
[2] = average Z score of the two replicates, MCE Phenols Library screen
[3] = average Z score of the two replicates, tau seeding

Sequence of tau (P10636 623-695 limits assumed): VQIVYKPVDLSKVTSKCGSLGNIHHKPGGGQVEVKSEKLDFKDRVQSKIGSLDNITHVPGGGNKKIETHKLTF

Row | Z repl 1 | Z Repl 2 | av puncta (average of raw data 1 and 2) | raw data 1 (puncta) | raw data 2 (puncta) | av puncta [1] | av Z [2] | raw data 1 (raw puncta) | raw data 2 (raw puncta) | av Z [3] | av Z (average Z score of two replicates, Phenols Library screen) | Structure (SMILES) | AvZ (average z score of seeding, SDs from the mean level of seeding) | av Z (average Z score of the two replicates, tau biosensor seeding, MCE Phenols Library screen)
1 | -0.716 | -0.982 | 10013.9 | 17751.7 | 2276.1 | – | – | – | – | – | – | CCCOC(=O)c1cc(O)c(O)c(O)c1 [Propyl gallate] | -0.849 | –
2 | -0.894 | -0.283 | – | 15614.9 | 9745.34 | 12680.1 | – | – | – | – | – | O=Cc1ccc(O)c(O)c1 [Protocatechualdehyde] | -0.588 | –
3 | -0.022 | -0.809 | – | – | – | 15106.6 | -0.415 | 26082.6 | 4130.62 | – | – | OC[C@]1(O)COc2cc(O)ccc2-c2cc(O)c(O)cc2C1 [Protosappanin B] | – | –
4 | -0.134 | 0.469 | 21257.9 | 24743.3 | 17772.6 | – | – | – | – | 0.168 | – | O=C1C[C@@H](c2ccc(O)cc2)Oc2cc(O[C@@H]3O[C@H](CO)[C@@H](O)[C@H](O)[C@H]3O)cc(O)c21 [Prunin] | – | –
5 | -0.975 | -0.298 | – | 14642.4 | 9586.42 | 12114.4 | -0.636 | – | – | – | – | COc1cc(/C=C/c2ccc(O)cc2)cc(OC)c1 [Pterostilbene] | – | –
6 | -0.042 | -0.868 | – | – | – | 14673.6 | -0.455 | 25849 | 3498.14 | – | – | O=c1c(-c2ccc(O)cc2)coc2c([C@@H]3O[C@H](CO[C@@H]4OC[C@@H](O)[C@H](O)[C@H]4O)[C@@H](O)[C@H](O)[C@H]3O)c(O)ccc12 [Puerarin 6''-O-Xyloside] | – | –
7 | 0.055 | -0.946 | – | – | – | 14831.1 | -0.446 | 27004.8 | 2657.32 | – | – | O=C1c2ccccc2C(=O)c2c(O)c(O)cc(O)c21 [Purpurin] | – | –
8 | -0.028 | -0.648 | – | – | – | 15926.2 | – | 26009.1 | 5843.4 | – | – | O=C(O)c1cccc(O)c1O [Pyrocatechuic acid] | -0.338 | –
9 | -1.577 | -1.176 | 3815.32 | 7422.91 | 207.732 | – | -1.376 | – | – | – | – | O=c1c(O)c(-c2ccc(O)c(O)c2)oc2cc(O[C@@H]3O[C@H](CO)[C@@H](O)[C@H](O)[C@H]3O)c(O)c(O)c12 [Quercetagitrin] | – | –
10 | -1.021 | -0.252 | – | 14091.5 | 10071.4 | 12081.4 | -0.637 | – | – | – | – | O=C1c2ccccc2C(=O)c2c(O)ccc(O)c21 [Quinizarin] | – | –
11 | -0.355 | -0.816 | – | 22084.8 | 4048.5 | 13066.7 | -0.586 | – | – | – | – | Oc1ccc(/C=C/c2cc(O)cc(O)c2)cc1 [Resveratrol] | – | –
12 | -0.491 | -0.104 | – | – | – | 16057.3 | -0.297 | 20455.1 | 11659.4 | – | – | O=c1c(O[C@@H]2OC[C@@H](O)[C@H](O)[C@H]2O)c(-c2ccc(O)c(O)c2)oc2cc(O)cc(O)c12 [Reynoutrin] | – | –
13 | -0.386 | 0.151 | 18050.7 | 21720.4 | 14381.1 | – | – | – | – | – | -0.117 | COc1cc(O)c2c(=O)c(O)c(-c3ccc(O)c(O)c3)oc2c1 [Rhamnetin] | – | –
14 | 0.64 | 0.434 | 25718.8 | 34038.2 | 17399.4 | – | – | – | – | 0.537 | – | O=C(O)c1cc(O)c2c(c1)C(=O)c1cccc(O[C@@H]3O[C@H](CO)[C@@H](O)[C@H](O)[C@H]3O)c1C2=O [Rhein 8-Glucoside] | – | –
15 | – | -1.086 | 6714.99 | 12258.1 | 1171.9 | – | -1.13 | – | – | – | – | C[C@@H]1O[C@@H](Oc2cc(O)c3c(=O)c(O)c(-c4ccc(O)cc4)oc3c2O)[C@H](O)[C@H](O)[C@H]1O [Rhodionin] | – | –

Row | Structure (SMILES) | Z repl 1 | Z Repl 2 | av puncta (average of raw data 1 and 2) | raw data 1 (puncta) | raw data 2 (puncta) | av puncta [1] | av Z [2] | raw data 1 (raw puncta) | raw data 2 (raw puncta) | av Z [3] | av Z (average Z score of two replicates, Phenols Library screen) | AvZ (average z score of seeding, SDs from the mean level of seeding) | av Z (average Z score of the two replicates, tau biosensor seeding, MCE Phenols Library screen)
16 | CCCOC(=O)c1ccc(O)cc1 [Propylparaben] | 0.084 | 0.893 | 24829.8 | 27354.6 | 22304.9 | – | – | – | – | – | – | 0.488 | –
17 | O=C(O)c1ccc(O)c(O)c1 [Protocatechuic acid] | -0.928 | -0.202 | – | 15212.3 | 10612.8 | 12912.5 | – | – | – | – | – | -0.565 | –
18 | Cc1cc(O)c2c(=O)c3c(O)cc(O)c4c5c(O)cc(O)c6c(=O)c7c(O)cc(C)cc7c(c65)c(c2c1)c34 [Protohypericin] | -0.657 | -0.804 | – | 18463.4 | 4183.21 | 11323.3 | -0.73 | – | – | – | – | – | –
19 | COc1cc(O)c2c(=O)c(-c3ccc(O)cc3)coc2c1 [Prunetin] | 3.008 | 2.297 | 49877.5 | 62461.3 | 37293.6 | – | – | – | – | – | – | – | 2.652
20 | Oc1cccc(O)c1O [Pyrogallol] | -0.635 | -1.067 | 10051 | 18727.1 | 1374.88 | – | – | – | – | – | – | -0.851 | –
21 | O=c1c(O)c(-c2ccc(O)c(O)c2)oc2cc(O)c(O)c(O)c12 [Quercetagetin] | -1.958 | -1.183 | 1487.44 | 2842.17 | 132.721 | – | -1.57 | – | – | – | – | – | –
22 | O.O.O=c1c(O)c(-c2ccc(O)c(O)c2)oc2cc(O)cc(O)c12 [Quercetin (dihydrate)] | -1.56 | -1.162 | 3988.66 | 7625.22 | 352.104 | – | -1.361 | – | – | – | – | – | –
23 | C[C@@H]1O[C@@H](Oc2c(-c3ccc(O)c(O)c3)oc3cc(O)cc(O)c3c2=O)[C@H](O)[C@H](O)[C@H]1O [Quercitrin] | -0.089 | -0.329 | – | – | – | 17263.5 | -0.209 | 25279.8 | 9247.27 | – | – | – | –
24 | CC(=O)CCc1ccc(O)cc1 [Raspberry ketone] | 0.027 | -0.77 | – | – | – | 15608.2 | – | 26674.5 | 4541.81 | – | – | -0.371 | –
25 | COc1cc(O)c2c(=O)c(OC)c(-c3ccc(OC)c(OC)c3)oc2c1 [Retusin] | -0.575 | -0.37 | – | 19450.4 | 8814.06 | 14132.2 | -0.472 | – | – | – | – | – | –
